From ChEMBL document CHEMBL1782050, “Discovery of new nanomolar peroxisome proliferator-activated receptor γ activators via elaborate ligand-based modeling” (Eur J Med Chem, 2011)

Target: T1, Peroxisome proliferator-activated receptor gamma (Homo sapiens, UniProt P37231)
T1 sequence (P37231 whole entry): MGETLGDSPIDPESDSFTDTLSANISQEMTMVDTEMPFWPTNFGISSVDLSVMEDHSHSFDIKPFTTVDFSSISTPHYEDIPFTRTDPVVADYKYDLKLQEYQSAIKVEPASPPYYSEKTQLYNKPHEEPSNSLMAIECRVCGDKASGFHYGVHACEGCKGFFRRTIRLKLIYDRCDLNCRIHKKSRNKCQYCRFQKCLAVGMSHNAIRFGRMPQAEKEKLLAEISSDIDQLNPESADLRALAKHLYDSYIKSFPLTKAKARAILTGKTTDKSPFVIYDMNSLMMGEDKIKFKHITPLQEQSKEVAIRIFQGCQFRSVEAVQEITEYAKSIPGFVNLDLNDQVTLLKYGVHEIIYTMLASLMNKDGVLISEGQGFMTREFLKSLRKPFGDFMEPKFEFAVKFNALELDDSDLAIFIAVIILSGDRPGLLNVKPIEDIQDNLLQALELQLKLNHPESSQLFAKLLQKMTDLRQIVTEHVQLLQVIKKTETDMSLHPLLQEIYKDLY
Type: functional, cell-based, HepG2
Description: Agonist activity at PPARgamma receptor expressed in human HepG2 cells by PPRE-luciferase reporter gene assay

EC50 [nM]	Compound
15.3	Cc1ccc(S(=O)(=O)Oc2ccc(N(CC(=O)O)S(=O)(=O)c3ccc(C)cc3)cc2)cc1
220000	COC1=C(OC)Cc2c(cc[n+]3c(CCC(=O)O)c4cc(OC)c(OC)cc4cc23)C1
224	COc1ccc(-c2nc(SCC(=O)O)n(-c3ccccn3)c2-c2ccc(OC)cc2)cc1
